The text below walks through data of patent US20050171206A1, “Therapeutical use” (priority 2004, published 2005).

One series has as its system SMN2 genes. As to conditions: in vitro, cell cultures; cited from earlier work.
Series [1] concerns children with SMA II (motor function). Briefly: Hammersmith functional motor scale, open trial in SMA II children (Example 2). Format: in vivo, human. As to conditions: for Hammersmith functional scale score, mean: 10 children, baseline mean 13. From the text:
Thirteen patients with SMA II, all with homozygous absence of SMN1, followed at the Bambino Gesu Hospital or at the UILDM centre in Rome were asked to participate in the present prospective open trial. In order to have a relatively homogeneous cohort of patients who could all be tested on the same scale only children with SMA II between 30 months and 12 years were included. Children younger than 30 months were excluded as the Hammersmith scale can only be reliably and consistently performed and scored after this age. (Main M, Kairon H, Mercuri E, Muntoni F. Eur J Paediatr Neurol. 2003;7:155-59.) Children older than 12 were excluded as after this age several complications, such as severe scoliosis and contractures are more frequent. Children who had been part of other pharmacological trials (e.g. salbutamol, creatine) in the year before the present trial started or who had had corrective surgery for scoliosis were also excluded.
(§1) The sodium salt of phenylbutyrate (triButyrate®) was administered orally in powder or tablets at 500 mg/kg/d (maximum dose 19 g/d), divided in 5 doses (every 4 hours except for an 8 hours night interval). An intermittent schedule (7 days on and 7 days off) was arbitrarily chosen, similarly to a previously reported schedule for treatment of sickle cell disease. (Atweh G F, Sutton M, Nassif I, Boosalis V, Dover G J, Wallen-stein S, Wright E, McMahon L, Stamatoyannopoulos G, Faller D V, Perrine S P Blood.1999;93:1790-97.) When this dosage was tolerated, patients were advised to continue for 9 weeks (5 weeks on and 4 weeks off).
(§2) The assessment consisted of a detailed clinical physiotherapy evaluation including the Hammersmith functional motor scale and, in children older than 5 years, assessment of muscle strength and of forced vital capacity.
The scale consists of 20 items, each scored on a 3 point scoring system, (2 for unaided, 1 for assistance and 0 for inability). A total score can be achieved by summing the scores for all the individual items. The score can range from 0, if all the activities are failed, to 40, if all the activities are achieved.
All items have to be tested without thoracic braces or leg orthoses. The scale can be completed in a maximum of 15 minutes. (Main M, Kairon H, Mercuri E, Muntoni F. Eur J Paediatr Neurol. 2003;7:155-59.)
The scale was performed by 2 examiners (MP, SM) and each child was always assessed by the same examiner throughout the 3 assessments. Both observers had training sessions with a senior physiotherapist (MM) and the intra and inter-rater reliability was formally assessed in 5 children before starting the trial. In agreement with the previously reported data on intra and inter-observer reliability, these were >95%. (Main M, Kairon H, Mercuri E, Muntoni F. Eur J Paediatr Neurol. 2003;7:155-59.)
The primary measure of efficacy in this trial was the change from baseline to 3 and 9 weeks in motor function as determined by the Hammersmith motor scale. Secondary measures included the change from baseline to 3 and 9 weeks in myometry scores and in FVC in the children older than 5 years. The primary outcome was analysed using repeated measures ANOVA. Statistical significance was determined at p<0.05. An estimate of SD of change in each of the measures considered is presented with 95% confidence intervals. The number of children older than 5 years who could be reliably assessed for myometry and FVC was too small to allow any meaningful statistical analysis for these measures.

The conditions of series [2]: 200 g per person and day; cited from earlier work.
Series [3] relates to SMA patients (muscle strength). Briefly: Myometry with hand-held dynamometer, day 0 and day 7 (Example 1). Format: in vivo, human. The method, then: Six SMA patients (P1-P6) and three parents (M2, M3, F6) were enrolled for a pilot trial. Four patients had SMA type II (P1-P4). P1 is a child who had lost the ability to sit unaided. P3 is […] and P4 and P5 are both […]. Two patients (P5 and P6) had SMA type III. The trial was approved by the Ethical Committee of the Catholic University. A written informed consent was obtained from all patients/parents. triButyrate®, the sodium salt of phenylbutyrate was administered at 500 mg/kg/d (maximum dose 19 g/d), divided in 6 doses(every 4 hours) for 7 days. Blood samples were taken from patients and parents on day 0 (T0, baseline) and on days 1-4 (T1-T4) and 7 (T7) of drug administration, and from 5 healthy untreated controls on 5 consecutive days (T0-T4). Total RNA was extracted by Trizol from leukocytes immediately after hypotonic lysis of samples.
Muscle strength was assessed using a hand-held dynamometer (Citec, CIT Technics BV). (Merlini L, Mazzone E S, Solari A, Morandi L. Muscle Nerve 2002; 26:64-70) Patients were tested independently four times by two raters, and the highest measure of the maximal voluntary isometric contraction was selected. Inter-rater coefficients (ICC) were determined as described by Shrout et al. (Shrout P E, Fleiss J L. Pscychol Bull 1979; 86:420-428)
F of Fisher, ANOVA and T of Student for independent variables tests were performed to assess statistical significance by using Winstat 4.01 and SPSS 10.0.1 for Windows software. P values <0.05 were accepted as significant.

In the next series the test system is children with SMA II. Briefly: Side effects (Example 2). Format: in vivo, human. The protocol: The sodium salt of phenylbutyrate (triButyrate®) was administered orally in powder or tablets at 500 mg/kg/d (maximum dose 19 g/d), divided in 5 doses (every 4 hours except for an 8 hours night interval). An intermittent schedule (7 days on and 7 days off) was arbitrarily chosen, similarly to a previously reported schedule for treatment of sickle cell disease.

Series [4] relates to children with SMA II older than 5 years. Nature of the series: Forced vital capacity by spirometer (Example 2). As to conditions: for FVC: individual children. Format: in vivo, human. Further details: FVC: unit not given here. The method, then: as §1, §2
This was measured using a standard spirometer (Spyroanalyser ST-95, Fukuda Sangyo Co, LTD, Philippines) and using the best of three attempts.

“And” between values parts separate entries of the source, which are not always exact repeats. Equal entries are not always repeated.

For `O=C([O-])CCCc1ccccc1.[Na+]` [triButyrate®, Sodium 4-phenylbutyrate], the “expression of the SMN2 genes” value with SMN2 genes is recorded as “can increase SMN2 gene expression in vitro”. Further, the “motor function in the treated children” value in series [1] (9 weeks, 7 days on and 7 days off) is on record as “significant increase in motor function”. The “children in the study group with an increase in functional scores” value in series [1] (9 weeks, intermittent regimen) is reported as “nine out of ten”. For the same compound, the “Hammersmith functional scale score, mean” value in series [1] (T1, 3 weeks after treatment was started) is 14.8; in series [1] (T2, 9 weeks after treatment was started), 17 and 16.6. The “children with an increase in functional scores of more than 2 points” value in series [1] (of the ten children, 9 weeks) is reported as 6. Besides, the side-effect result in series [2] is given as “increased blood pressure”. Further, the Foot dorsiflexion in series [3] (T7 = day 7, P2, P3, P4 (type II), P6 (type III)) was 15 (0.6) Newtons and 9 (0.81) Newtons and 11 (0.81) Newtons and 11 (0.9) Newtons. Besides, the Arm strength entry in series [3] (patients P3 and P4, less obvious than leg strength) is “increased”. In addition, the “leg muscle strength on day 7 compared to baseline” value in series [3] (three type II patients (P2-4), statistically significant in P3 and P4) is reported as “increase in leg muscle strength”. The “muscle performance by myometry” value in series [3] (type III case (P6), reduced dosage) is recorded as “no changes in muscle performance”. In addition, the tolerability result with children with SMA II (500 mg/kg/d oral, intermittent, 9 weeks) was “generally well tolerated”. In addition, the stomach ache entry in the series with children with SMA II (after the second dose, did not recur) is “Three very young children complained of stomach ache”. Moreover, the “children who found the taste of the drug very unpleasant” value with children with SMA II (children who completed the trial) was “Eight of the 10”. Besides, the “children who reported an unpleasant odour when sweating” value in the series on children with SMA II (of the eight who found the taste unpleasant) is given as “seven”. Also, the “adverse event leading to discontinuation” value in the series with children with SMA II (one child, after the second week of treatment started) was “skin rash”. In addition, the “Forced vital capacity, patients with increase” value in series [4] (4 patients older than 5 years) is “clear increase in 3 of the 4”. The FVC in series [4] (T1, 3 weeks) is 0.87 and 1.15 and 0.75 and 1.70; in series [4] (T2, 9 weeks), 1.18 and 1.23 and 1.22 and 1.74.
